For orientation: EC50 means the concentration needed to bring the measured effect to its halfway point. The term IC50 denotes the concentration that gives 50% inhibition. Read a high IC50 as weaker potency. The term half-life denotes the time in which the quantity being followed falls by half. A lower half-life goes with fast loss. By share remaining is commonly meant what is left of the initial amount, in per cent. Higher therefore signals greater stability.

In data set [1] the target is T1, CaV2.2 (Homo sapiens, UniProt Q00975).
T1 sequence (Q00975 whole entry, looked up): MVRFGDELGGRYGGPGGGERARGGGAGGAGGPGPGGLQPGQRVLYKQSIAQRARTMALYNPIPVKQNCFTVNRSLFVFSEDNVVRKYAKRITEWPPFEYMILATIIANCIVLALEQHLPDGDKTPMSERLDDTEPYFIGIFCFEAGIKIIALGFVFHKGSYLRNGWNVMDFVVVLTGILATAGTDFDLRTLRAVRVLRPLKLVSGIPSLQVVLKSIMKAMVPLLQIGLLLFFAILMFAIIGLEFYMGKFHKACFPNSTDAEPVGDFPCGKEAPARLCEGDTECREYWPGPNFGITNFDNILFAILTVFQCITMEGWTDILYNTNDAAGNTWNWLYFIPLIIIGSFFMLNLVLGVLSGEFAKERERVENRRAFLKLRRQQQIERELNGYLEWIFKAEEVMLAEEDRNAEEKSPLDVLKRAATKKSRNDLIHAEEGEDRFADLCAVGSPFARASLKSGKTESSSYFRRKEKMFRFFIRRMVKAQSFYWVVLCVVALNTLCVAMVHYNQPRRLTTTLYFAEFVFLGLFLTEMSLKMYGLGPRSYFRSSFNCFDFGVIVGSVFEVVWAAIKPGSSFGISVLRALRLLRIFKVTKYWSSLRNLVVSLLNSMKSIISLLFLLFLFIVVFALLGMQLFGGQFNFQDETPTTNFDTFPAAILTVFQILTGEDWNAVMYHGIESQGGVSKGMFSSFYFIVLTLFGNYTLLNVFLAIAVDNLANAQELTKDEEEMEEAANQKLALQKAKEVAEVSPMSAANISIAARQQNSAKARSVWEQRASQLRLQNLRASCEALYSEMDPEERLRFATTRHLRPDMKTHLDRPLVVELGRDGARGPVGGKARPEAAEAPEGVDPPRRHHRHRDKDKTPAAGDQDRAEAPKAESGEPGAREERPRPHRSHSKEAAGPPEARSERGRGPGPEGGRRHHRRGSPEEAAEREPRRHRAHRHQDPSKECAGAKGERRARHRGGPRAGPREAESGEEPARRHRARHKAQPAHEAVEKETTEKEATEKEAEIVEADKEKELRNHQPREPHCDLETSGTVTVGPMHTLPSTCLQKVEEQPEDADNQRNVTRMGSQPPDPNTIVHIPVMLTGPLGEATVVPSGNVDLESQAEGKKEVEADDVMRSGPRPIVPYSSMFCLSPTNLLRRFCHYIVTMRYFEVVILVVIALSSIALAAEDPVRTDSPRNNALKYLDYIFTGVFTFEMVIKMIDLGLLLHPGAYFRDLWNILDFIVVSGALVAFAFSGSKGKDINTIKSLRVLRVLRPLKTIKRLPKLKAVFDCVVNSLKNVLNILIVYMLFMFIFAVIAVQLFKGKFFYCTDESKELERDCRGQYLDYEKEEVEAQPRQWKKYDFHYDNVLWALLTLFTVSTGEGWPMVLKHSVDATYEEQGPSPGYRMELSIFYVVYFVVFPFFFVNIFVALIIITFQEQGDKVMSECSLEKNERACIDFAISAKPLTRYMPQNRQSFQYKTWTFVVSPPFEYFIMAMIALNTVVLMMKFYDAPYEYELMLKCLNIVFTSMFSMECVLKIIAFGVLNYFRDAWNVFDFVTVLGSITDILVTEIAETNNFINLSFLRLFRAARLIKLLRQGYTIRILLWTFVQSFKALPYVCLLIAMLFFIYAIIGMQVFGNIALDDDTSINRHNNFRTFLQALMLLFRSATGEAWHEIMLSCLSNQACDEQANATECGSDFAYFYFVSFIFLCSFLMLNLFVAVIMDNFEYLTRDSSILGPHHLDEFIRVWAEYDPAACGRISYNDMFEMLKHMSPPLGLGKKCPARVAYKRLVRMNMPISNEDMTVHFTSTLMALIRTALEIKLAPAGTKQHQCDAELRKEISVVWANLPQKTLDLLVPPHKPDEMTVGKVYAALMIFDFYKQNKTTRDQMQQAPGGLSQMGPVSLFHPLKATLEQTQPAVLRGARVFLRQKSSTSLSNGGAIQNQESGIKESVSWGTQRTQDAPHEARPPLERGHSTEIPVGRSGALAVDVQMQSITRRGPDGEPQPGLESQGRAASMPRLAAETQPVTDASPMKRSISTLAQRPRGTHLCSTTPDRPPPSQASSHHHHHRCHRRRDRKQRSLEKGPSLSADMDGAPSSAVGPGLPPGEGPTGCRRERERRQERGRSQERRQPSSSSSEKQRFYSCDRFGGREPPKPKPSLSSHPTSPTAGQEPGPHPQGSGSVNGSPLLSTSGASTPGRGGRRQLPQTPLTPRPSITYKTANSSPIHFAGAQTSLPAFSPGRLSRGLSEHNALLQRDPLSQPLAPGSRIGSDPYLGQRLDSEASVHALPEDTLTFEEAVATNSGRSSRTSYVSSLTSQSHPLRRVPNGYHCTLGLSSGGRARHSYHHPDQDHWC
Data set [2] concerns the target T1, CaV2.2. Kind of data set: cell-based.
A short description of the next data set: in vitro. As to conditions: simulated intestinal fluid, pH 6.8.

At CaV2.2 [1], `CCCC[C@@H]1NC(=O)[C@H](CC(C)C)NC(=O)[C@H](CCCNC(=N)N)NC(=O)[C@H](CO)NC(=O)[C@@H]2CSSC[C@@H]3NC(=O)[C@H](CO)NC(=O)CNC(=O)[C@H]([C@@H](C)O)NC(=O)[C@H](CSSC[C@H](N)C(=O)N[C@@H](CCCCN)C(=O)NCC(=O)N[C@@H](CCCCN)C(=O)NCC(=O)N[C@@H](C)C(=O)N[C@@H](CCCCN)C(=O)N2)NC(=O)[C@H](CSSC[C@@H](C(N)=O)NC(=O)[C@H](CCCCN)NC(=O)CNC(=O)[C@H](CO)NC(=O)[C@H](CCCNC(=N)N)NC3=O)NC(=O)[C@H](CC(=O)O)NC(=O)[C@H](Cc2ccc(O)cc2)NC1=O` [M-2] registered a LogEC50 of -9.9. On CaV2.2 [2], this compound came in with a half-maximal effective concentration (EC50) of 0.1 nM and an IC50 of 0.1 nM.

`CSCC[C@@H]1NC(=O)[C@H](CC(C)C)NC(=O)[C@H](CCCNC(=N)N)NC(=O)[C@H](CO)NC(=O)[C@@H]2CSSC[C@@H]3NC(=O)[C@H](CO)NC(=O)CNC(=O)[C@H]([C@@H](C)O)NC(=O)[C@H](CSSC[C@H](N)C(=O)N[C@@H](CCCCN)C(=O)NCC(=O)N[C@@H](CCCCN)C(=O)NCC(=O)N[C@@H](C)C(=O)N[C@@H](CCCCN)C(=O)N2)NC(=O)[C@H](CSSC[C@@H](C(=O)O)NC(=O)[C@H](CCCCN)NC(=O)CNC(=O)[C@H](CO)NC(=O)[C@H](CCCNC(=N)N)NC3=O)NC(=O)[C@H](CC(=O)O)NC(=O)[C@H](Cc2ccc(O)cc2)NC1=O` [M-3] registered a LogEC50 on CaV2.2 [1] of -8.8. For the same compound, at CaV2.2 [2], the midpoint of the response, the EC50, lay at 1.7 nM and half-maximal inhibition (IC50) was put at 1.7 ± 1.2 nM.

The compound `CCCC[C@@H]1NC(=O)[C@H](CC(C)C)NC(=O)[C@H](CCCNC(=N)N)NC(=O)[C@H](CO)NC(=O)[C@@H]2CSSC[C@@H]3NC(=O)[C@H](CO)NC(=O)CNC(=O)[C@H]([C@@H](C)O)NC(=O)[C@@H]4CSSC[C@H](NC(=O)[C@H](C)NC(=O)CNC(=O)CNC(=O)[C@H](CC(N)=O)NC(=O)CNC(=O)[C@H](C)NC(=O)[C@H](CSSC[C@H](NC(=O)[C@H](CC(=O)O)NC(=O)[C@H](Cc5ccc(O)cc5)NC1=O)C(=O)N4)NC(=O)[C@H](CCCCN)NC(=O)CNC(=O)[C@H](CO)NC(=O)[C@H](CCCNC(=N)N)NC3=O)C(=O)N[C@@H](CCCCN)C(=O)NCC(=O)N[C@@H](CCCCN)C(=O)NCC(=O)N[C@@H](C)C(=O)N[C@@H](CCCCN)C(=O)N2` [cM-6] gave a LogEC50 on CaV2.2 [1] of -7.4. On CaV2.2 [2], this compound had a concentration giving a half-maximal response (EC50) of 43.2 nM and a concentration for half-maximal inhibition (IC50) of 43.2 ± 1.4 nM.

With `CCCC[C@@H]1NC(=O)[C@H](CC(C)C)NC(=O)[C@H](CCCNC(=N)N)NC(=O)[C@H](CO)NC(=O)[C@@H]2CSSC[C@@H]3NC(=O)[C@H](CO)NC(=O)CNC(=O)[C@H]([C@@H](C)O)NC(=O)[C@@H]4CSSC[C@H](NC(=O)[C@H](C)NC(=O)[C@H](C)NC(=O)CNC(=O)CNC(=O)[C@H](CC(N)=O)NC(=O)CNC(=O)[C@H](C)NC(=O)[C@H](CSSC[C@H](NC(=O)[C@H](CC(=O)O)NC(=O)[C@H](Cc5ccc(O)cc5)NC1=O)C(=O)N4)NC(=O)[C@H](CCCCN)NC(=O)CNC(=O)[C@H](CO)NC(=O)[C@H](CCCNC(=N)N)NC3=O)C(=O)N[C@@H](CCCCN)C(=O)NCC(=O)N[C@@H](CCCCN)C(=O)NCC(=O)N[C@@H](C)C(=O)N[C@@H](CCCCN)C(=O)N2` [cM-7], the LogEC50 on CaV2.2 [1] is listed as -7.8. Besides, at CaV2.2 [2], the response was half-maximal at 13.5 nM (EC50) and half-maximal inhibition (IC50) was put at 13.5 ± 1.2 nM. In the data set “in vitro”, the half-life was 43 min and the amount remaining at 1 h was roughly 38%.

With `CCCC[C@@H]1NC(=O)[C@H](CC(C)C)NC(=O)[C@H](CCCNC(=N)N)NC(=O)[C@H](CO)NC(=O)[C@@H]2CSSC[C@@H]3NC(=O)[C@H](CO)NC(=O)CNC(=O)[C@H]([C@@H](C)O)NC(=O)[C@@H]4CSSC[C@H](NC(=O)[C@H](C)NC(=O)[C@H](C)NC(=O)CNC(=O)CNC(=O)[C@H](CC(N)=O)NC(=O)CNC(=O)CNC(=O)[C@H](C)NC(=O)[C@H](CSSC[C@H](NC(=O)[C@H](CC(=O)O)NC(=O)[C@H](Cc5ccc(O)cc5)NC1=O)C(=O)N4)NC(=O)[C@H](CCCCN)NC(=O)CNC(=O)[C@H](CO)NC(=O)[C@H](CCCNC(=N)N)NC3=O)C(=O)N[C@@H](CCCCN)C(=O)NCC(=O)N[C@@H](CCCCN)C(=O)NCC(=O)N[C@@H](C)C(=O)N[C@@H](CCCCN)C(=O)N2` [cM-8], the LogEC50 on CaV2.2 [1] is listed as -7.6. Also, at CaV2.2 [2], a half-maximal response (EC50) required 21.8 nM and the IC50 worked out at 21.8 ± 1.2 nM.

For `CCCC[C@@H]1NC(=O)[C@H](CC(C)C)NC(=O)[C@H](CCCNC(=N)N)NC(=O)[C@H](CO)NC(=O)[C@@H]2CSSC[C@@H]3NC(=O)[C@H](CO)NC(=O)CNC(=O)[C@H]([C@@H](C)O)NC(=O)[C@@H]4CSSC[C@H](NC(=O)[C@H](C)NC(=O)[C@H](C)NC(=O)CNC(=O)CNC(=O)[C@H](CC(N)=O)NC(=O)CNC(=O)CNC(=O)[C@H](C)NC(=O)[C@H](C)NC(=O)[C@H](CSSC[C@H](NC(=O)[C@H](CC(=O)O)NC(=O)[C@H](Cc5ccc(O)cc5)NC1=O)C(=O)N4)NC(=O)[C@H](CCCCN)NC(=O)CNC(=O)[C@H](CO)NC(=O)[C@H](CCCNC(=N)N)NC3=O)C(=O)N[C@@H](CCCCN)C(=O)NCC(=O)N[C@@H](CCCCN)C(=O)NCC(=O)N[C@@H](C)C(=O)N[C@@H](CCCCN)C(=O)N2` [cM-9], the LogEC50 at CaV2.2 [1] is listed as -6.4. In addition, on CaV2.2 [2], the EC50 was determined as 307 nM and the IC50 stood at 306.6 ± 1.5 nM.

These data come from article PMC10952433, “A Chemoenzymatic Approach To Produce a Cyclic Analogue of the Analgesic Drug MVIIA (Ziconotide)” (Angewandte Chemie (International Ed. in English), 2023).
